Assay results taken from patent US4929736A, “Latent isocynate derivatives useful for deactivating enzymes” (Board of Trustees of the Wichita State University, priority 1986, dated 1990).
Entries after “also recorded” stand apart in the source; their conditions may differ. Like-named read-outs stand apart in the source and are kept apart here.

Columns and labels:
[1] = target: Porcine pancreatic elastase (PPE) (Sus scrofa, UniProt P00772); test: Spectrophotometric assay of PPE inactivation (in vitro); assay type: biochemical; conditions: for kinact/KI: Table I azolides, read-out: Porcine pancreatic elastase k3 /Ki
Chain of Porcine pancreatic elastase (PPE) (P00772 27-266): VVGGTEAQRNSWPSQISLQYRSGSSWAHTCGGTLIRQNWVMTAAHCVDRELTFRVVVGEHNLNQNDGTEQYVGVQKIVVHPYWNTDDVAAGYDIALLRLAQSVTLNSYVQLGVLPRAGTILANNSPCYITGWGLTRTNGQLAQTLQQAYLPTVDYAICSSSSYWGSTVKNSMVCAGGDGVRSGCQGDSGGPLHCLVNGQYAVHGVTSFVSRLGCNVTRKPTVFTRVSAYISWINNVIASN
Experimental: The enzyme assays used to evaluate the potency of the inhibitors in vitro were performed as follows: PPE was assayed spectrophotometrically at 347.5 nm with (tert-butoxycarbonyl)-alanyl-p-nitrophenol in 0.05 M phosphate buffer, pH 6.5, 25° C., or by using succinyl-L-trialanyl-p-nitroanilide in 0.1 M Tris buffer, pH 8.0, at 410 nm. HLE was assayed spectrophotometrically at 410 nm with succinyl-L-trialanyl-p-nitroanilide or methoxy succinyl ala-ala-pro-val-p-nitroanilide (As describe by K. Wakajima et al in the J. Biol. Chem, 254, 4027-4032 (1979) and T. Teshima et al, in J. Biol. Chem 257, 5085-5091 (1982). The potency of an inhibitor is determined by obtaining a kinetic determination of the bimolecular rate constant K3 /Ki (or Robsd /[I]). The HLE used in these studies may be obtained from Elastin Products, St. Louis, Mo.) in 0.1 M Tris buffer, pH 8.0.
(§1) The appropriate amount of inhibitor in acetonitrile was mixed with PPE in phosphate buffer solution and placed in a constant temperature bath. Aliquots were withdrawn at different time intervals and transferred to a cuvette containing 100 uL of substrate, 140 uL of acetonitrile, and 2 mL of phosphate buffer, pH 6.5. After incubating for 30 seconds, the absorbance change was monitored for two minutes at 347.5 nm. The inhibitor-to-enzyme ratios varied between 50 and 200, and the incubation intervals were shortened or lengthened depending upon the potency of the inhibitor. Controlled reactions for 100% PPE activity were run in the presence of acetonitrile. A similar procedure was followed for HLE.
(§2) The reaction of an irreversible inhibitor with PPE and HLE may be illustrated by the scheme shown below: [drawing 5] where EI is the noncovalently bound enzyme-inactivator complex and E-I is the final product with the inhibitor covalently bound to the enzyme. The kinetics data were analyzed according to known procedures. The apparent pseudo-first-order inactivation rate constants were determined from the slopes of semilogarithmic plots of enzymatic activity remaining versus time using the following equation: [formula] where Et /EO is the amount of active enzyme remaining after time "t". Inhibition is generally expressed in terms of k3 /Ki, M^-1 s^-1, wherein Ki is the disassociation constant for the enzyme inhibitor complex and k3 is a limiting rate constant for the irreversible loss of enzymatic activity.
Table I below illustrates the inhibition found with assays of nine amino-acid-derived azolides against PPE and HLE.

[2] = target: T1, Human leukocyte elastase (HLE) (Homo sapiens, UniProt P08246); test: Spectrophotometric assay of HLE inactivation (in vitro); assay type: biochemical
T1 construct: purchased Elastin Products, St. Louis, Mo
T1 sequence (P08246 30-267): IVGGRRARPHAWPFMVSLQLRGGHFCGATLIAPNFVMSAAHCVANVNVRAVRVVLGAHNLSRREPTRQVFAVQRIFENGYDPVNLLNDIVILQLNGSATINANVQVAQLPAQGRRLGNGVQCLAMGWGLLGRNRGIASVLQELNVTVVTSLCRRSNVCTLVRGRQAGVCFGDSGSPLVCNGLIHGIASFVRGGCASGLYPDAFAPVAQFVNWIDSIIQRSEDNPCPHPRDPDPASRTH
Experimental: as §1, with “The inhibitor-to-enzyme ratios varied between 50 and 200, and the incubation intervals were shortened or lengthened depending upon the potency of the inhibitor.” left out
as §2, with “"t".” for “"t". Inhibition is generally expressed in terms of k3 /Ki, M^-1 s^-1, wherein Ki is the disassociation constant for the enzyme inhibitor complex and k3 is a limiting rate constant for the irreversible loss of enzymatic activity.”
The assay procedure used was the procedure identified relative to the tests above in Table I.
(kobsd) were determined by plotting in [E]t /[E]o vs time.

alpha-Chymotrypsin = alpha-Chymotrypsin (Bos taurus, UniProt P00766); test: Inactivation of chymotrypsin; assay type: biochemical; conditions: for Inhibition of chymotrypsin (in words): comparable conditions
PPE = conditions: cited from earlier work; for Irreversible inhibition of PPE (in words): 183rd ACS National Meeting, 1982
[3] = Inactivation of S-ethylcysteine sulfonate salt by oxidants / hydrolysis in buffer; assay type: physicochemical
Excerpt: In addition, compound 3, Table VI, was exposed to oxidants in vitro and the rates of its inactivation with chloramine-T and H2 O2 compared to buffer alone are summarized in Table VII below. […] The observed rates of inhibitor inactivation are 6 to 12 fold smaller than the rate at which the inhibitor inactivates the enzyme.

[4] = Table I azolides, read-out: Human leukocyte elastase k3 /Ki

## CS(=O)(=O)ON1C(=O)CC(Cc2ccccc2)C1=O (racemic) [BENZYL, OSO2 CH3, (dl)-3-Benzyl-N-(methanesulfonyloxy) succinimide]
[1]
  Inhibition of PPE (in words): unaffected
[2]; Table V, succinimide derivatives, read-out: kobsd /[I], inhibition of leukocyte elastase
  kinact/KI: 1170 M⁻¹ s⁻¹
alpha-Chymotrypsin; Table V footnote a, read-out: kobsd /[I], alpha-Chymotrypsin
  kinact/KI: 9000 M⁻¹ s⁻¹
alpha-Chymotrypsin
  Inhibition of chymotrypsin (in words): efficiently inactivated

## CCCCC(NC(=O)n1ccnc1)C(=O)OC (racemic) [Compound 9, Table I]
[1]
  kinact/KI: 2.2 M⁻¹ s⁻¹
[2]; [4]
  kinact/KI: 167 M⁻¹ s⁻¹

## CCCC(NC(=O)n1ccnc1)C(=O)OC (racemic) [DL-norvaline methyl ester derivative]
PPE
  Irreversible inhibition of PPE (in words): Particularly active

## COC(=O)CNC(=O)n1ccnc1 [Compound 1]
[1]
  Inhibition of PPE (in words): failed to deactivate
[2]
  Inhibition of HLE (in words): failed to deactivate

## COC(=O)[C@H](C)NC(=O)n1ccnc1 [Compound 2]
[1]
  Inhibition of PPE (in words): marginal inhibitory activity
[2]
  Inhibition of HLE (in words): marginal inhibitory activity

## COC(=O)[C@@H](NC(=O)n1ccnc1)C(C)C [Compound 3, Table I]
[1]
  kinact/KI: 2.8 M⁻¹ s⁻¹
[2]; [4]
  kinact/KI: 193 M⁻¹ s⁻¹
[2]; listed as L-valine azolide
  Inhibition of HLE (in words): highly effective
PPE
  Irreversible inhibition of PPE (in words): Particularly active

## CCSC[C@H](NC(=O)S(=O)(=O)O)C(=O)OC [Compound 3, Table VI]
[2]; Table VI, sulfur-containing amino acid esters, read-out: kobsd /[I], inhibition of HLE
  kinact/KI: 1800 M⁻¹ s⁻¹
[3]; Chloramine T (0.06 mM), first line
  kobsd, inactivation of inhibitor: 6.6 × 10^-4 sec ^-1
[3]; Chloramine T (0.06 mM), second line
  kobsd, inactivation of inhibitor: 3.2 × 10^-3 sec ^-1
[3]; H2O2 (1 mM)
  kobsd, inactivation of inhibitor: 1.2 × 10^-3 sec ^-1
[3]; Triss buffer, pH 8.0 (0.2 M)
  kobsd, inactivation of inhibitor: 5.8 × 10^-4 sec ^-1
[3]; buffer, pH 8.0
  half life of hydrolysis in buffer solution: twenty
[3]; chloramine-T and H2O2
  scavenging of oxidants (in words): scavenged by the inhibitor in a time dependent and efficient fashion
[3]; chloramine-T, H2O2
  half life with addition of oxidants (in words): shorter half lives

## COC(=O)[C@@H](NC(=O)n1ccnc1)C(C)C [Compound 3]
[1]
  Inhibition of PPE (in words): poor inhibitor; also recorded: little for PPE
[2]
  Inhibition of HLE (in words): excellent inhibitor; also recorded: avidity for HLE

## CCC[C@H](NC(=O)S(=O)(=O)O)C(=O)OC [Compound 4, Table II]
[1]
  Inhibition of PPE (in words): no effect
[2]; Table II monopotassium sulfonate salts, read-out: k2 /Ki (HLE)
  kinact/KI: 860 M⁻¹ s⁻¹
[2]; listed as L-norvaline sulfonate salt
  Inhibition of HLE (in words): very potent inhibitors; also recorded: effective inhibitors
alpha-Chymotrypsin
  Inhibition of chymotrypsin (in words): no effect

## COC(=O)[C@H](NC(=O)n1ccnc1)C(C)C [Compound 4, Table I]
PPE
  Irreversible inhibition of PPE (in words): marginal activity

## COC(=O)[C@H](NC(=O)n1ccnc1)C(C)C [Compound 4]
[1]
  Inhibition of PPE (in words): no effect
[2]
  Inhibition of HLE (in words): no effect

## CCC[C@H](NC(=O)n1ccnc1)C(=O)OC [Compound 5]
[1]
  Inhibition of PPE (in words): little for PPE
  kinact/KI: 6.3 M⁻¹ s⁻¹
[2]
  Inhibition of HLE (in words): effective inhibitors; also recorded: avidity for HLE
[2]; [4]
  kinact/KI: 500 M⁻¹ s⁻¹

## COC(=O)[C@H](CC(C)C)NC(=O)n1ccnc1 [Compound 7, Table I]
[1]
  kinact/KI: 0.5 M⁻¹ s⁻¹
[2]
  Inhibition of HLE (in words): highly effective

## CCC(C)[C@H](NC(=O)n1ccnc1)C(=O)OC (stereo partly shown) [Compound 8, Table I]
[1]
  kinact/KI: 1 M⁻¹ s⁻¹

## CCCCC(NC(=O)n1ccnc1)C(=O)OC (stereo not shown) [Compound 9]
[1]
  Inhibition of PPE (in words): little for PPE
[2]
  Inhibition of HLE (in words): effective inhibitors; also recorded: avidity for HLE

## COC(=O)[C@H](CCSC)NC(=O)n1ccnc1 [N-(1H-imidazol-1-ylcarbonyl)-methionine methyl ester]
[1]
  Inhibition of PPE (in words): unaffected
[2]
  Inhibition of HLE (in words): remarkable specificity and high potency
[2]; listed as methionine azolide
  Inhibition of HLE (in words): highly effective

## CCOC(=O)CNC(=O)n1ccnc1 [glycine ethel ester derivative]
PPE
  Irreversible inhibition of PPE (in words): inactive

## CCCCNC(=O)n1ccnc1 [n-butyl derivative]
PPE; Biochem. Biophys. Res. Commun. report (1980)
  Inhibition of PPE (in words): particularly capable of binding to the active site of the enzyme
